The text below walks through data of BindingDB's records for doi:10.1073/pnas.0708281105 (Gsk, 2008).

Holding throughout (assay): Receptor Tyrosine Kinase Inhibition Assay
Common to all, as to conditions: pH 7.5; 23 °C

In assay [1] the target is Receptor tyrosine-protein kinase erbB-4 (Homo sapiens, UniProt Q15303). The method, then: (§1) Assays were performed in 96-well microtiter plates in reaction buffer containing biotinylated substrate, ATP/[gamma-33P]ATP, and purified kinase in the presence of test compounds. Reactions were terminated and transferred to MAPH phosphocellulose filter plates. The scintillation mixture was added to each well, and the assay was quantified by counting in a Packard Topcount (Packard Instrument Co.).

The target in assay [2] is Epidermal growth factor receptor (Homo sapiens, UniProt P00533). The method, then: as §1
The target in assay [3] is Receptor tyrosine-protein kinase erbB-2 (Homo sapiens, UniProt P04626). The method, then:
as §1

pIC50: −log10 of the molar value.

Sequence of Epidermal growth factor receptor (P00533 whole entry): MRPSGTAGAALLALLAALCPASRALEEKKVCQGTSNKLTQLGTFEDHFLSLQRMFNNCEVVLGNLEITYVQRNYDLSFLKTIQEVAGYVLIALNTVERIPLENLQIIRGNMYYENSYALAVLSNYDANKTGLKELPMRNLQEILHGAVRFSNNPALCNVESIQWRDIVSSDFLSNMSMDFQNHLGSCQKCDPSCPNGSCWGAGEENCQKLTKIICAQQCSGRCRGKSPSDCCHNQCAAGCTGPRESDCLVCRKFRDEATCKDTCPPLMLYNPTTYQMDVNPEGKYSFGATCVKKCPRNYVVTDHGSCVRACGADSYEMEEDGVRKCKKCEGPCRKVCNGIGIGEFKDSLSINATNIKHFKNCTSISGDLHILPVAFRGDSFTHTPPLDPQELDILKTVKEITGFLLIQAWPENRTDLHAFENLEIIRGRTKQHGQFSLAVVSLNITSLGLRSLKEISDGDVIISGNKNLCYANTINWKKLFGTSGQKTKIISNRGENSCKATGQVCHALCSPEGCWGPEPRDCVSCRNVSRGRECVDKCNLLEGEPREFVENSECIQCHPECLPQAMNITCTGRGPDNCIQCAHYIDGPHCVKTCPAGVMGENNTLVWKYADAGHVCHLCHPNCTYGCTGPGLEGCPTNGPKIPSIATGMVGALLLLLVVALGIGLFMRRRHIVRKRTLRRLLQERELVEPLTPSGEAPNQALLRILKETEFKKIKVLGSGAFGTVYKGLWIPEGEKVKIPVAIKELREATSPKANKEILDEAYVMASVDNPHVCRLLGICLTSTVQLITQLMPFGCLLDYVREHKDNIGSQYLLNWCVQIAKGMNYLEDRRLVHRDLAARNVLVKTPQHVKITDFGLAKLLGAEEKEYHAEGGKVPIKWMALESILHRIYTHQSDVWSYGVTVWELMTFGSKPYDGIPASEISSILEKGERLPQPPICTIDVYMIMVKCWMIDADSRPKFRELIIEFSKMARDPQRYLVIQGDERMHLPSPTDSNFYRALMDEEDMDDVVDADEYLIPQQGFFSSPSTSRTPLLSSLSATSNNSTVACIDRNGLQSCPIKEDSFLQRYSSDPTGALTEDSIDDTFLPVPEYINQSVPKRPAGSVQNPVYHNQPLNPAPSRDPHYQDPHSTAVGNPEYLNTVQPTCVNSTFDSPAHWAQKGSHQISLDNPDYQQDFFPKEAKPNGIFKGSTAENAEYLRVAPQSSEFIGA
Sequence of Receptor tyrosine-protein kinase erbB-2 (P04626 whole entry): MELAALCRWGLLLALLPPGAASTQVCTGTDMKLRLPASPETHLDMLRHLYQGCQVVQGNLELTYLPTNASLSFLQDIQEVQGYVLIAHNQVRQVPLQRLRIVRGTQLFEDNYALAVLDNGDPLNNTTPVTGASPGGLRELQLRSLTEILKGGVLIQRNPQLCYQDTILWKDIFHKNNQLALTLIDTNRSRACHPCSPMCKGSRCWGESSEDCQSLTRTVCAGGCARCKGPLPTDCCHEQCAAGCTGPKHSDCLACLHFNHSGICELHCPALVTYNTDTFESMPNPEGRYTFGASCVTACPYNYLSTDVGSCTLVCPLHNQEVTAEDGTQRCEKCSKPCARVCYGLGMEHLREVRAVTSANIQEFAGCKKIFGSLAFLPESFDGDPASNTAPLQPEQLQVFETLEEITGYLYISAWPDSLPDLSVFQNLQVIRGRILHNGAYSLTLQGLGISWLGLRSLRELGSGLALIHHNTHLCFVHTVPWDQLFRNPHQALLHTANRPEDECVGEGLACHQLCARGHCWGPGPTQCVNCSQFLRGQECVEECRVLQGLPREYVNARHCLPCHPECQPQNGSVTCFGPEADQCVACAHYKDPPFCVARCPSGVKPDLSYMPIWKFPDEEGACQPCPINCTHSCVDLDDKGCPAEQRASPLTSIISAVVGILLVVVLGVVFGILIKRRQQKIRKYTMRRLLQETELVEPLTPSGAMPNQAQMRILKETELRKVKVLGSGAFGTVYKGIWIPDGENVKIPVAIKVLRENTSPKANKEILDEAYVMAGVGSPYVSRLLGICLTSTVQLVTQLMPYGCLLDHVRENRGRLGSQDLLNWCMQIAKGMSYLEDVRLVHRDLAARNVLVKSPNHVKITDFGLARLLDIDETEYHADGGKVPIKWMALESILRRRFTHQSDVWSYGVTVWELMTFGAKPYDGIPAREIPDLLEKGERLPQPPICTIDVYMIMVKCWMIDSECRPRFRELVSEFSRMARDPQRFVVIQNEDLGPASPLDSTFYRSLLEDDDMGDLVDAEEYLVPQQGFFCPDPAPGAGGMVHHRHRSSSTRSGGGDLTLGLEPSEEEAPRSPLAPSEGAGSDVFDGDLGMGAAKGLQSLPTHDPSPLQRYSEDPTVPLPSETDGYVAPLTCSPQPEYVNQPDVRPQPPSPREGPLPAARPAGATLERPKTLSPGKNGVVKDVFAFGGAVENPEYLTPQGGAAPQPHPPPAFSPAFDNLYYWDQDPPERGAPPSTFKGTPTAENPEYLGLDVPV
Sequence of Receptor tyrosine-protein kinase erbB-4 (Q15303 whole entry): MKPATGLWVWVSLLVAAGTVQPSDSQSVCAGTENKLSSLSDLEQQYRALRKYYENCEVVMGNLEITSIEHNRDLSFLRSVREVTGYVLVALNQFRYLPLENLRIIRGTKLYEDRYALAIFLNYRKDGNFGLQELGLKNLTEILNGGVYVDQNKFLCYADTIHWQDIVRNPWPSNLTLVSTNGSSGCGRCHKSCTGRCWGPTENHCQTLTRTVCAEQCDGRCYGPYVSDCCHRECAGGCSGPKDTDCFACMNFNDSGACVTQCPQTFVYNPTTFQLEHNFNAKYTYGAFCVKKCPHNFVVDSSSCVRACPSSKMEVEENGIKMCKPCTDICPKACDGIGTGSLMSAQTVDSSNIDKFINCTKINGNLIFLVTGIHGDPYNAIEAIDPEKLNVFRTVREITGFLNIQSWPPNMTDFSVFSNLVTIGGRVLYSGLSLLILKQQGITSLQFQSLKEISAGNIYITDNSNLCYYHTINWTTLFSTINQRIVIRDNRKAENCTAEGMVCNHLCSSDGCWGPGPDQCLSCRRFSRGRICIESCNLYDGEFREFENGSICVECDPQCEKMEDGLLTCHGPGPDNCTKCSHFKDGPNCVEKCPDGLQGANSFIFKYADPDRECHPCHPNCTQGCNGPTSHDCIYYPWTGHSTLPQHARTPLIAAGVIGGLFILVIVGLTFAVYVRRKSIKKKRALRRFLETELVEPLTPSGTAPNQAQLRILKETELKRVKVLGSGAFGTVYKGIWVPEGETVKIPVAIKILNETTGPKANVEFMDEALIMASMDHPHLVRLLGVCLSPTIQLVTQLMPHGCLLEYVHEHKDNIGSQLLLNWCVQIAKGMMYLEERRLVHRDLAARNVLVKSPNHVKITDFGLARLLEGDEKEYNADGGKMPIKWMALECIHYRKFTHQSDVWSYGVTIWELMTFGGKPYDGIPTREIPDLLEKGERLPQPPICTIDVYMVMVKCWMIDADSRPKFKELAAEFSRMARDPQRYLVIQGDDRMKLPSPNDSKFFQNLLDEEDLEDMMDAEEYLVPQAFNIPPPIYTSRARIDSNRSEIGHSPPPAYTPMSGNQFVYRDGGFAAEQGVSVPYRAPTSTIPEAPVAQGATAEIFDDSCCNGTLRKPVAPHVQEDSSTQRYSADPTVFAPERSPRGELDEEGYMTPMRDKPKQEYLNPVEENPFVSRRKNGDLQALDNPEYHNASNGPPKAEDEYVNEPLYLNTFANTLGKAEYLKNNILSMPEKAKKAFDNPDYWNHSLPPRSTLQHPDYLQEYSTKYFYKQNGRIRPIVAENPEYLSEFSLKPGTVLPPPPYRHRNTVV

Usually pIC50 stands for −log10 of the IC50, conventionally taken in molar units. The low end stands for a high IC50, the high end for a low IC50. Consider `C[C@H](N)C#Cc1cc2ncnc(Nc3ccc(OCc4cccc(F)c4)c(Cl)c3)c2s1` [6-[(3S)-3-aminobut-1-yn-1-yl]-N-{3-chloro-4-[(3-fluorophenyl)methoxy]phenyl}thieno[3,2-d]pyrimidin-4-amine], for which the pIC50 in assay [1] was 6.39; in assay [2], 7.19; in assay [3] it was 7.57.
For `Nc1cnc(C#Cc2cc3c(Nc4ccc(OCc5cccc(F)c5)c(Cl)c4)ncnc3s2)cn1` [5-{2-[4-({3-chloro-4-[(3-fluorophenyl)methoxy]phenyl}amino)thieno[2,3-d]pyrimidin-6-yl]ethynyl}pyrazin-2-amine] the same measures were 5.87, 6.43 and 7.28.
Consider `Nc1cnc(C#Cc2cc3ncnc(Nc4ccc(OCc5cccc(F)c5)c(Cl)c4)c3s2)cn1` [5-{2-[4-({3-chloro-4-[(3-fluorophenyl)methoxy]phenyl}amino)thieno[3,2-d]pyrimidin-6-yl]ethynyl}pyrazin-2-amine], for which the values for the negative logarithm of the IC50 (pIC50) in assay [1], in assay [2] and in assay [3] were 6.60, 7.33 and 8.00, respectively.
In the same order, the values of `C[C@H](N)C#Cc1cc2c(Nc3ccc(OCc4cccc(F)c4)c(Cl)c3)ncnc2s1` [6-[(3S)-3-aminobut-1-yn-1-yl]-N-{3-chloro-4-[(3-fluorophenyl)methoxy]phenyl}thieno[2,3-d]pyrimidin-4-amine] are 6.20, 7.16 and 7.36.
Turning to `C#Cc1cc2c(Nc3ccc(OCc4cccc(F)c4)c(Cl)c3)ncnc2s1` [N-{3-chloro-4-[(3-fluorophenyl)methoxy]phenyl}-6-ethynylthieno[2,3-d]pyrimidin-4-amine], the values for the pIC50 in assay [1], in assay [2] and in assay [3] were 5.76, 7.15 and 7.72, respectively.
On to `C#Cc1cc2ncnc(Nc3ccc(OCc4cccc(F)c4)c(Cl)c3)c2s1` [N-{3-chloro-4-[(3-fluorophenyl)methoxy]phenyl}-6-ethynylthieno[3,2-d]pyrimidin-4-amine], for which the results for the pIC50 in assay [2] and in assay [3] were 7.62 and 7.92, respectively.
With `Fc1cccc(COc2ccc(Nc3ncnc4sc(C#C[C@H]5CCCN5)cc34)cc2Cl)c1` [N-{3-chloro-4-[(3-fluorophenyl)methoxy]phenyl}-6-{2-[(2R)-pyrrolidin-2-yl]ethynyl}thieno[2,3-d]pyrimidin-4-amine], the pIC50 was 5.64 in assay [1], 6.96 in assay [2] and 7.27 in assay [3].
As for `Fc1cccc(COc2ccc(Nc3ncnc4cc(C#C[C@H]5CCCN5)sc34)cc2Cl)c1` [N-{3-chloro-4-[(3-fluorophenyl)methoxy]phenyl}-6-{2-[(2R)-pyrrolidin-2-yl]ethynyl}thieno[3,2-d]pyrimidin-4-amine], the results for the pIC50 in assay [1], in assay [2] and in assay [3] were 7.18, 8.15 and 7.89, respectively.
